# Laboratory results: patent US20060025474A1, “Bisphenyl compounds useful as vitamin D3 receptor agonists” (priority 2004, published 2006)
# System: ECAC2 mRNA in Caco-2 cells
# Assay type: cell-based
# Method: The mRNA Expression Assay of ECAC2 in Caco-2 Cells
# The dispersed cells were plated in 48-well plate at a concentration of 6.3×10^4 cells/well and incubated for 4 days at 37° C. The culture medium (Dulbecco's Modified Eagle Medium (D-MEM) without NaHCO3 with 44 mM NaHCO3, 1 mM non-essential amino acids, and 2 mM L-glutamine, 90%; fetal bovine serum, 10%) was then replaced with the same medium containing various concentrations of LG190178 (the compound disclosed in WO00/10958 and the corresponding U.S. Pat. No. 6,218,430 B1) or the compounds of the present invention, and cells were cultured for 1 day at 37° C. The culture medium containing the compounds was changed twice per day.
# Total RNA Isolation from Caco-2 Cell
# Total RNA was isolated from Caco-2 cell following ABI PRISM™ 6100 Nucleic Acid PrepStation protocol from Applied Biosystems.
# Real Time RT-PCR Assay of ECAC2
# ECAC2 mRNA expression was determined using TaqMan One-step RT-PCR Master Mix Reagents Kit and PRISM7000 systems from Applied Biosystems.
# Primer information and cycle conditions are 1)ECAC2, forward 5′-[…]-3′, reverse 5′-GTCCTCTGTCTGGMGATGA-3′, Taqman probe 5′-[…]-3′, 55 cycles, annealing temperature (Ta)=60° C.; 2)GAPDH, forward 5′-GMGGTGMGGTCGGAGTC-3′, reverse 5′-GMGATGGTGATGGGATTTC-3′, Taqman probe 5′-[…]-3′, 55 cycles, Ta=60° C. ECAC2 mRNA values were normalized for the expression of GAPDH mRNA within each sample.
# Comparison of ECAC2 mRNA Value
# The EC50 values of ECAC2 mRNA values were analyzed by Emax models. The ECAC2 mRNA ratio was calculated as the ratio of the EC50 value of the compounds to that of LG190178. ECAC2 is a channel-like transporter mediating intestinal calcium absorption. It is described in J Biol Chem. Aug. 6, 1999; 274(32):22739-46 for example.
row,ECaC-2 mRNA induction activity in Caco-2 cells,Structure (SMILES)
1,556%,"C=C1/C(=C\C=C2/CCC[C@]3(C)[C@@H]([C@H](C)CCCC(C)(C)O)CC[C@@H]23)C[C@@H](O)C[C@@H]1O [1,25(OH)2D3, reference compound]"
2,161%,"CCC(CC)(c1ccc(CCC(O)(C(F)(F)F)C(F)(F)F)c(C)c1)c1ccc(OC[C@@H](O)CCC(=O)O)c(C)c1 [Example 31, (S)-5-(4-{1-ethyl-1-[3-methyl-4-(4,4,4-trifluoro-3-hydroxy-3-trifluoromethyl-butyl)-phenyl]-propyl}-2-methyl-phenoxy)-4-hydroxy-pentanoic acid]"
3,24%,"CCC(CC)(c1ccc(C#CC(O)(C(F)(F)F)C(F)(F)F)c(C)c1)c1ccc(OC[C@@H]2CCCC(=O)O2)c(C)c1 [Example 57, (S)-6-(4-{1-ethyl-1-[3-methyl4-(4,4,4-trifluoro-3-hydroxy-3-trifluoromethyl-but-1-ynyl)-phenyl]-propyl}-2-methyl-phenoxymethyl)-tetrahydro-pyran-2-one]"
4,57%,"CCC(CC)(c1ccc(CCC(O)C(C)(C)C)c(C)c1)c1ccc(OC[C@@H](O)CCCC(=O)O)c(C)c1 (stereo partly drawn) [Example 186, 6-(4-{1-Ethyl-1-[4-(3-hydroxy-4,4-dimethyl-pentyl)-3-methyl-phenyl]-propyl}-2-methyl-phenoxy)-5(S)-hydroxy-hexanoic acid]"
5,1227%,"CCC(CC)(c1ccc(/C=C/C(O)(C(F)(F)F)C(F)(F)F)c(C)c1)c1ccc(OC[C@@H](O)CC(=O)O)c(C)c1 [Example 52, (S)4-(4-{1-ethyl-1-[3-methyl-4-((E)A4,4,4-trifluoro-3-hydroxy-3-trifluoromethyl-but-1-enyl)-phenyl]-propyl}-2-methyl-phenoxy)-3-hydroxy-butyric acid]"
6,12%,"CCC(O)(/C=C/c1ccc(C(CC)(CC)c2ccc(OCCCCCN)c(C)c2)cc1C)CC [Example 119, (E)-1-(4-{1-[4-(5-Amino-pentyloxy)-3-methyl-phenyl]-1-ethyl-propyl}-2-methyl-phenyl)-3-ethyl-pent-1-en-3-ol]"
7,226%,"CCC(CC)(c1ccc(/C=C/C(O)(C(F)(F)F)C(F)(F)F)c(C)c1)c1ccc(OCCCCCC(=O)O)c(C)c1 [Example 92, 6-(4-{1-Ethyl-1-[3-methyl-4-((E)4,4,4-trifluoro-3-hydroxy-3-trifluoromethyl-but-1-enyl)-phenyl]-propyl}-2-methyl-phenoxy)-hexanoic acid]"
8,15%,"CCc1cc(C(CC)(CC)c2ccc(C(=O)N[C@H](C)C(=O)O)s2)ccc1OCC(C)(O)C(C)(C)C (single isomer, unassigned) [Compound B, reference compound]"
9,662%,"CCC(CC)(c1ccc(/C=C/C(O)(C(F)(F)F)C(F)(F)F)c(C)c1)c1ccc(OC[C@@H]2CCCC(=O)O2)c(C)c1 [Example 55, (S)-6-(4-{1-ethyl-1-[3-methyl-4-((E)-4,4,4-trifluoro-3-hydroxy-3-trifluoromethyl-but-1-enyl)-phenyl]-propyl}-2-methyl-phenoxymethyl)-tetrahydro-pyran-2-one]"
10,538%,"CCC(CC)(c1ccc(/C=C/C2(O)CCCC2)c(C)c1)c1ccc(OC[C@@H](O)CCC(=O)O)c(C)c1 [Example 35, (S)-5-[4-(1-ethyl-1-{4-[(E)-2-(1-hydroxy-cyclopentyl)-vinyl]-3-methyl-phenyl}-propyl)-2-methyl-phenoxy]-4-hydroxy-pentanoic acid]"
11,860%,"CCC(CC)(c1ccc(/C=C/C(O)C(C)(C)C)c(C)c1)c1ccc(OC[C@@H](O)CO)c(C)c1 (stereo partly drawn) [Example 67, 3-(4-{1-ethyl-1-[4-((E)-3-hydroxy-4,4-dimethyl-pent-1-enyl)-3-methyl-phenyl]-propyl}-2-methyl-phenoxy)-propane--1,2(S)-diol]"
12,166%,"CCC(CC)(c1ccc(CCC(O)C(C)(C)C)c(C)c1)c1ccc(OCCCCCN)c(C)c1 (stereo not shown) [Example 102, 1-(4-{1-[4-(5-amino-pentyloxy)-3-methyl-phenyl]-1-ethyl-propyl}-2-methyl-phenyl)-4,4-dimethyl-pentan-3-ol]"
13,4760%,"CCC(CC)(c1ccc(/C=C/C(O)(C(F)(F)F)C(F)(F)F)c(C)c1)c1ccc(OC[C@@H](O)CCCO)c(C)c1 [Example 156, (S)-5-(4-{1-Ethyl-1-[3-methyl4-((E)4,4,4-trifluoro-3-hydroxy-3-trifluoromethyl-but-1-enyl)-phenyl]-propyl}-2-methyl-phenoxy)-pentane-1,4-diol]"
14,102%,"CCC(O)(/C=C/c1ccc(C(CC)(CC)c2ccc(OCCCCC(=O)O)c(C)c2)cc1C)CC [Example 81, 5-(4-{1-Ethyl-1-[4-((E)-3-ethyl-3-hydroxy-pent-1-enyl)-3-methyl-phenyl]-propyl}-2-methyl-phenoxy)-pentanoic acid]"
15,545%,"CCC(CC)(c1ccc(CCC(O)C(C)(C)C)c(C)c1)c1ccc(OC[C@@H](O)CCCC(=O)O)c(C)c1 (stereo partly drawn) [Example 187, 6-(4-{1-Ethyl-1-[4-(3-hydroxy-4,4-dimethyl-pentyl)-3-methyl-phenyl]-propyl}-2-methyl-phenoxy)-5(S)-hydroxy-hexanoic acid]"
16,2093%,"CCC(CC)(c1ccc(/C=C/C(O)C(C)(C)C)c(C)c1)c1ccc(OC[C@@H](O)CCC(=O)O)c(C)c1 (stereo partly drawn) [Example 28, 5-(4-{1-ethyl-1-[4-((E)-3-hydroxy-4,4-dimethyl-pent-1-enyl)-3-methyl-phenyl]-propyl}-2-methyl-phenoxy)-4(S)-hydroxy-pentanoic acid]"
17,845%,"CCC(CC)(c1ccc(/C=C/C2(O)CCCCC2)c(C)c1)c1ccc(OCCCCC(=O)O)c(C)c1 [Example 88, 5-[4-(1-ethyl-1-{4-[(E)-2-(1-hydroxy-cyclohexyl)-vinyl]-3-methyl-phenyl}-propyl)-2-methyl-phenoxy]-pentanoic acid]"
18,22%,"CCC(O)(/C=C/c1ccc(C(CC)(CC)c2ccc(OC[C@H]3CCCC(=O)O3)c(C)c2)cc1C)CC [Example 190, 6(R)-(4-{1-Ethyl-1-[4-((E)-3-ethyl-3-hydroxy-pent-1-enyl)-3-methyl-phenyl]-propyl}-2-methyl-phenoxymethyl)-tetrahydro-pyran-2-one]"
19,14%,"CCc1cc(C(CC)(CC)c2ccc(C(=O)N[C@@H](C)C(=O)O)s2)ccc1OCC(C)(O)C(C)(C)C (single isomer, unassigned) [Compound D, reference compound]"
20,289%,"CCC(CC)(c1ccc(/C=C/C2(O)CCCC2)c(C)c1)c1ccc(OCCCCC(=O)O)c(C)c1 [Example 86, 5-[4-(1-ethyl-1-{4-[(E)-2-(1-hydroxy-cyclopentyl)-vinyl]-3-methyl-phenyl}-propyl)-2-methyl-phenoxy]-pentanoic acid]"
21,309%,"CCC(CC)(c1ccc(/C=C/C(O)C(C)(C)C)c(C)c1)c1ccc(OCC(CO)CO)c(C)c1 (stereo not shown) [Example 75, 2-(4-{1-ethyl-1-[4-((E)-3-hydroxy-4,4-dimethyl-pent-1-enyl)-3-methyl-phenyl]-propyl}-2-methyl-phenoxymethyl)-propane-1,3-diol]"
22,292%,"CCC(CC)(c1ccc(C#CCCCC(=O)O)c(C)c1)c1ccc(C#CC(O)(C(F)(F)F)C(F)(F)F)c(C)c1 [Example 192, 6-(4-{1-Ethyl-1-[3-methyl-4-(4,4,4-trifluoro-3-hydroxy-3-trifluoromethyl-but-1-ynyl)-phenyl]-propyl}-2-methyl-phenyl)-hex-5-ynoic acid]"
23,1843%,"CCC(CC)(c1ccc(/C=C/C(O)(C(F)(F)F)C(F)(F)F)c(C)c1)c1ccc(OCCCCC(=O)O)c(C)c1 [Example 84, 5-(4-{1-ethyl-1-[3-methyl-4-((E)-4,4,4-trifluoro-3-hydroxy-3-trifluoromethyl-but-1-enyl)-phenyl]-propyl}-2-methyl-phenoxy)-pentanoic acid]"
24,49%,"CCC(CC)(c1ccc(C#CC(O)(C(F)(F)F)C(F)(F)F)c(C)c1)c1ccc(OC[C@@H](O)CCC(=O)O)c(C)c1 [Example 2, (S)-5-(4-{1-ethyl-1-[3-methyl-4-(4,4,4-trifluoro-3-hydroxy-3-trifluoromethyl-but-1-ynyl)-phenyl]-propyl}-2-methyl-phenoxy)-4-hydroxy-pentanoic acid]"
25,1777%,"CCC(CC)(c1ccc(/C=C/C(O)(C(F)(F)F)C(F)(F)F)c(C)c1)c1ccc(OC[C@@H](O)CCC(=O)O)c(C)c1 [Example 30, (S)-5-(4-{1-ethyl-1-[3-methyl-4-((E)-4,4,4-trifluoro-3-hydroxy-3-trifluoromethyl-but-1-enyl)-phenyl]-propyl}-2-methyl-phenoxy)-4-hydroxy-pentanoic acid]"
